# Test results reported in ChEMBL document CHEMBL4350981, “Salinomycin and its derivatives - A new class of multiple-targeted "magic bullets"” (Eur J Med Chem, 2019).
# How the values were obtained:
# Staphylococcus aureus [1] = experiment: Antibacterial activity against methicillin-sensitive Staphylococcus aureus; assay type: functional
# Staphylococcus aureus [2] = experiment: Antibacterial activity against methicillin-resistant Staphylococcus aureus; assay type: functional
# Trypanosoma brucei = experiment: Trypanocidal activity against bloodstream forms of Trypanosoma brucei […] incubated for 24 hrs followed by compound wash out after 72 hrs; assay type: functional
# Bacillus anthracis = experiment: Antibacterial activity against Bacillus anthracis; assay type: functional
# [3] = test system: Staphylococcus epidermidis; experiment: Antibacterial activity against methicillin-resistant Staphylococcus epidermidis; assay type: functional
# Staphylococcus aureus [4] = experiment: Antibacterial activity against Staphylococcus aureus; assay type: functional
# Mycolicibacterium phlei [5] = experiment: Antibacterial activity against Mycobacterium phlei; assay type: functional
# Micrococcus luteus = experiment: Antibacterial activity against Sarcina lutea; assay type: functional
# Bacillus subtilis = experiment: Antibacterial activity against Bacillus subtilis; assay type: functional
# Staphylococcus aureus [6] = experiment: Antibacterial activity against Staphylococcus aureus FDA 209P by agar diffusion method; assay type: functional
# Xanthomonas oryzae = experiment: […] activity against Xanthomonas oryzae by agar diffusion method; assay type: functional
# Mycobacterium avium = experiment: Antimycobacterial activity against Mycobacterium avium IFO 315 by agar diffusion method; assay type: functional
# [7] = test system: Mycobacteroides abscessus; experiment: Antimycobacterial activity against Mycobacterium abscessus ATCC 19977; assay type: functional
# Alternaria kikuchiana [8] = experiment: Antimicrobial activity against Alternaria kikuchiana NIAS by agar diffusion method; assay type: functional
# Mycolicibacterium phlei [9] = experiment: Antimycobacterial activity against Mycobacterium phlei IPCR by agar diffusion method; assay type: functional
# Influenza A virus H3N2 = experiment: Antiviral activity against Influenza A virus (A/Hong Kong/7/1987(H3N2)) infected in MDCK cells after 3 days by MTT assay; assay type: functional, organism-based; settings: 72 h
# [10] = test system: Human immunodeficiency virus 1; experiment: Antiviral activity against HIV1; assay type: functional, organism-based
# Pyricularia oryzae = experiment: […] activity against Pyricularia oryzae by agar diffusion method; assay type: functional
# Alternaria kikuchiana [11] = experiment: Antimicrobial activity against Alternaria kikuchiana A-14 by agar diffusion method; assay type: functional
# [12] = test system: Human immunodeficiency virus 1; experiment: Antiviral activity against HIV1 infected in U937 cells; assay type: functional, organism-based; settings: Human immunodeficiency virus 1, U-937
Compound,MIC (Staphylococcus aureus [2]),MIC [3],MIC (Staphylococcus aureus [4]),MIC (Mycolicibacterium phlei [5]),MIC (Micrococcus luteus),MIC (Bacillus subtilis),further results
CC[C@@H](C(=O)[C@@H](C)[C@@H](O)[C@H](C)[C@@H]1O[C@@H]([C@@H](CC)C(=O)Nc2ccccc2)CC[C@@H]1C)[C@H]1O[C@]2(C=C[C@@H](O)[C@]3(CC[C@@](C)([C@H]4CC[C@](O)(CC)[C@H](C)O4)O3)O2)[C@H](C)C[C@@H]1C,4 µg/mL,,,,,,MIC (Staphylococcus aureus [1]): 2 µg/mL
CCCCNC(=O)[C@H](CC)[C@H]1CC[C@H](C)[C@H]([C@@H](C)[C@H](O)[C@H](C)C(=O)[C@H](CC)[C@H]2O[C@]3(C=C[C@@H](O)[C@]4(CC[C@@](C)([C@H]5CC[C@](O)(CC)[C@H](C)O5)O4)O3)[C@H](C)C[C@@H]2C)O1,,,,,,,GI50 (Trypanosoma brucei): 0.04 µM
CC[C@@H](C(=O)[C@@H](C)[C@@H](O)[C@H](C)[C@@H]1O[C@@H]([C@@H](CC)C(=O)On2nnc3ccccc32)CC[C@@H]1C)[C@H]1O[C@]2(C=C[C@@H](O)[C@]3(CC[C@@](C)([C@H]4CC[C@](O)(CC)[C@H](C)O4)O3)O2)[C@H](C)C[C@@H]1C,,,,,,,MIC (Staphylococcus aureus [1]): 1 to 2 µg/mL
CC[C@@H](C(=O)[C@@H](C)[C@@H](O)[C@H](C)[C@@H]1O[C@@H]([C@@H](CC)C(=O)N(CC)CC)CC[C@@H]1C)[C@H]1O[C@]2(C=C[C@@H](O)[C@]3(CC[C@@](C)([C@H]4CC[C@](O)(CC)[C@H](C)O4)O3)O2)[C@H](C)C[C@@H]1C,,4 to 8 µg/mL,,,,,MIC (Bacillus anthracis): 1 µg/mL
CCCN(CCC)C(=O)[C@H](CC)[C@H]1CC[C@H](C)[C@H]([C@@H](C)[C@H](O)[C@H](C)C(=O)[C@H](CC)[C@H]2O[C@]3(C=C[C@@H](O)[C@]4(CC[C@@](C)([C@H]5CC[C@](O)(CC)[C@H](C)O5)O4)O3)[C@H](C)C[C@@H]2C)O1,,4 to 8 µg/mL,,,,,MIC (Bacillus anthracis): 4 µg/mL
CC[C@@H](C(=O)[C@@H](C)[C@@H](O)[C@H](C)[C@@H]1O[C@@H]([C@@H](CC)C(=O)OC[C@H]2O[C@@H](n3cc(F)c(=O)[nH]c3=O)C[C@@H]2O)CC[C@@H]1C)[C@H]1O[C@]2(C=C[C@@H](O)[C@]3(CC[C@@](C)([C@H]4CC[C@](O)(CC)[C@H](C)O4)O3)O2)[C@H](C)C[C@@H]1C,8.17 to 32.7 µg/mL,8.17 to 32.7 µg/mL,,,,,
CC[C@@H](C(=O)[C@@H](C)[C@@H](O)[C@H](C)[C@@H]1O[C@@H]([C@@H](CC)C(=O)OCC(F)(F)F)CC[C@@H]1C)[C@H]1O[C@]2(C=C[C@@H](O)[C@]3(CC[C@@](C)([C@H]4CC[C@](O)(CC)[C@H](C)O4)O3)O2)[C@H](C)C[C@@H]1C,0.5 to 1 µg/mL,2 to 4 µg/mL,,,,,GI50 (Trypanosoma brucei): 0.057 µM
CCCCC(=O)O[C@@H]1C=C[C@]2(O[C@H]([C@@H](CC)C(=O)[C@@H](C)[C@@H](O)[C@H](C)[C@@H]3O[C@@H]([C@@H](CC)C(=O)O)CC[C@@H]3C)[C@@H](C)C[C@H]2C)O[C@@]12CC[C@@](C)([C@H]1CC[C@](O)(CC)[C@H](C)O1)O2,,,0.78 µg/mL,3.12 µg/mL,1.56 µg/mL,1.56 µg/mL,
CC[C@@H](C(=O)[C@@H](C)[C@@H](O)[C@H](C)[C@@H]1O[C@@H]([C@@H](CC)C(=O)O)CC[C@@H]1C)[C@H]1O[C@]2(C=C[C@@H](OC(C)=O)[C@]3(CC[C@@](C)([C@H]4CC[C@](O)(CC)[C@H](C)O4)O3)O2)[C@H](C)C[C@@H]1C,,,0.78 µg/mL,6.25 µg/mL,1.56 µg/mL,1.56 µg/mL,
CCC(=O)O[C@@H]1C=C[C@]2(O[C@H]([C@@H](CC)C(=O)[C@@H](C)[C@@H](O)[C@H](C)[C@@H]3O[C@@H]([C@@H](CC)C(=O)O)CC[C@@H]3C)[C@@H](C)C[C@H]2C)O[C@@]12CC[C@@](C)([C@H]1CC[C@](O)(CC)[C@H](C)O1)O2,,,0.78 µg/mL,1.56 µg/mL,0.78 µg/mL,0.78 µg/mL,
CCCC(=O)O[C@@H]1C=C[C@]2(O[C@H]([C@@H](CC)C(=O)[C@@H](C)[C@@H](O)[C@H](C)[C@@H]3O[C@@H]([C@@H](CC)C(=O)O)CC[C@@H]3C)[C@@H](C)C[C@H]2C)O[C@@]12CC[C@@](C)([C@H]1CC[C@](O)(CC)[C@H](C)O1)O2,,,0.78 µg/mL,1.56 µg/mL,0.78 µg/mL,0.78 µg/mL,
CC[C@@H](C(=O)[C@@H](C)[C@@H](O)[C@H](C)[C@@H]1O[C@@H]([C@@H](CC)C(=O)O)CC[C@@H]1C)[C@H]1O[C@]2(C=C[C@@H](OC=O)[C@]3(CC[C@@](C)([C@H]4CC[C@](O)(CC)[C@H](C)O4)O3)O2)[C@H](C)C[C@@H]1C,,,1.56 µg/mL,12.5 µg/mL,3.12 µg/mL,3.12 µg/mL,
CC[C@@H](C(=O)[C@@H](C)[C@@H](O)[C@H](C)[C@@H]1O[C@@H]([C@@H](CC)C(=O)OCc2cc([N+](=O)[O-])cc([N+](=O)[O-])c2)CC[C@@H]1C)[C@H]1O[C@]2(C=C[C@@H](O)[C@]3(CC[C@@](C)([C@H]4CC[C@](O)(CC)[C@H](C)O4)O3)O2)[C@H](C)C[C@@H]1C,8 to 16 µg/mL,4 to 8 µg/mL,,,,,
CC[C@@H](C(=O)[C@@H](C)[C@@H](O)[C@H](C)[C@@H]1O[C@@H]([C@@H](CC)C(=O)NCc2ccc(F)cc2)CC[C@@H]1C)[C@H]1O[C@]2(C=C[C@@H](O)[C@]3(CC[C@@](C)([C@H]4CC[C@](O)(CC)[C@H](C)O4)O3)O2)[C@H](C)C[C@@H]1C,16 to 64 µg/mL,16 to 128 µg/mL,,,,,
O=C(N[C@H](CO)[C@H](O)c1ccc([N+](=O)[O-])cc1)C(Cl)Cl [CHLORAMPHENICOL],,,,,,,MIC (Staphylococcus aureus [6]): 3.12 µg/mL
CC[C@H]1OC(=O)[C@H](C)[C@@H](O[C@H]2C[C@@](C)(OC)[C@@H](O)[C@H](C)O2)[C@H](C)[C@@H](O[C@@H]2O[C@H](C)C[C@H](N(C)C)[C@H]2O)[C@](C)(O)C[C@@H](C)C(=O)[C@H](C)[C@@H](O)[C@]1(C)O [ERYTHROMYCIN],,,,,,,MIC (Staphylococcus aureus [6]): 3.12 µg/mL
CC[C@@H](C(=O)[C@@H](C)[C@@H](O)[C@H](C)[C@@H]1O[C@@H]([C@@H](CC)C(=O)O)CC[C@@H]1C)[C@H]1O[C@]2(C=C[C@@H](O)[C@]3(CC[C@@](C)([C@H]4CC[C@](O)(CC)[C@H](C)O4)O3)O2)[C@H](C)C[C@@H]1C [SALINOMYCIN],1 to 16 µg/mL,1 to 16 µg/mL,1.56 µg/mL,12.5 µg/mL,3.12 µg/mL,3.12 µg/mL,MIC (Xanthomonas oryzae): 50 µg/mL; MIC (Mycobacterium avium): 12.5 µg/mL; MIC (Bacillus anthracis): 1 µg/mL; MIC [7]: > 20 µg/mL; MIC (Alternaria kikuchiana [8]): 50 µg/mL; MIC (Mycolicibacterium phlei [9]): 12.5 µg/mL; EC50 (Influenza A virus H3N2): 0.4 to 4.3 µM; EC50 [10]: 0.4 µg/mL; MIC (Pyricularia oryzae): 25 µg/mL; MIC (Staphylococcus aureus [1]): 1 to 2 µg/mL; GI50 (Trypanosoma brucei): 0.18 µM; MIC (Alternaria kikuchiana [11]): 50 µg/mL; EC50 [12]: 0.09 µg/mL
CN[C@@H]1[C@H](O[C@H]2[C@H](O[C@H]3[C@H](O)[C@@H](O)[C@H](N=C(N)N)[C@@H](O)[C@@H]3N=C(N)N)O[C@@H](C)[C@]2(O)C=O)O[C@@H](CO)[C@H](O)[C@H]1O [STREPTOMYCIN],,,,,,,MIC (Staphylococcus aureus [6]): 3.12 µg/mL
CN(C)[C@@H]1C(O)=C(C(N)=O)C(=O)[C@@]2(O)C(O)=C3C(=O)c4c(O)cccc4[C@@](C)(O)[C@H]3C[C@@H]12 [TETRACYCLINE],,,,,,,MIC (Staphylococcus aureus [6]): 3.12 µg/mL
